Source: ChEMBL document CHEMBL1123763, “Resolution of (+/-)-2-tetradecyloxiranecarboxylic acid. Absolute configuration and chiral synthesis of the hypoglycemic R enantiomer and biological activity of enantiomers” (J Med Chem, 1987)
Active and inactive are the calls of the source. The rule behind the calls is not given here.

Columns and labels:
[1] = molecular target: T1, Carnitine O-palmitoyltransferase 1, liver isoform (Rattus norvegicus, UniProt P32198); assay: Inhibition of carnitine palmitoyl transferase (CPT), assessed with isolated rat liver mitochondria
T1 sequence (P32198 whole entry): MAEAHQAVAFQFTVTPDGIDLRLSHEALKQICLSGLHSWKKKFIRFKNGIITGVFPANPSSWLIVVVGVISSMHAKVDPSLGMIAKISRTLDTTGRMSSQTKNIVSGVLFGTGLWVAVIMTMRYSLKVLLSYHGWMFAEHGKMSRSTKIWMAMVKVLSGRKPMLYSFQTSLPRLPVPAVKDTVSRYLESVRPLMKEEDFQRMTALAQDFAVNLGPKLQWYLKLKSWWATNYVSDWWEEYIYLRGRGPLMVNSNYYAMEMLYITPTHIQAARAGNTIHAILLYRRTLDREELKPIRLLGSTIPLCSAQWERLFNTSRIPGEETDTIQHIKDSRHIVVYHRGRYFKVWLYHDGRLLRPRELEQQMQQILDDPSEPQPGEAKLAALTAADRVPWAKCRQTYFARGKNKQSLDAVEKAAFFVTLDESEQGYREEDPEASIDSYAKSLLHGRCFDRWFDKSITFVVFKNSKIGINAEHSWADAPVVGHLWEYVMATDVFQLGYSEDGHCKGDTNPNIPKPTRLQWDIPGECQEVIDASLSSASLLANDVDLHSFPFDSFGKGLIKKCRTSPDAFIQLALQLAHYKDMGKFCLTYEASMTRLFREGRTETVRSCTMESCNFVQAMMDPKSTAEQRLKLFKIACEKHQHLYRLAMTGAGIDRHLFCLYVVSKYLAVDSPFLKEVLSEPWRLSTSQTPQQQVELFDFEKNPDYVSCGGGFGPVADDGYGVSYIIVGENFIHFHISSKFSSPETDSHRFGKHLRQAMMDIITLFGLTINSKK

Rattus norvegicus [2] = species on record: Rattus norvegicus; assay: In vitro inhibition of [1-14C]palmitate oxidation in rat hemidiaphragms; format: functional
Rattus norvegicus [3] = assay: Rat glucose tolerance in vivo expressed as minimum effective dose (MED), it is the lowest dose giving a statistically significant (p<0.05) lowering at any time point; format: functional; conditions: read-out: MED
Rattus norvegicus [4] = assay: Rat glucose tolerance test was determined in vivo at 100 mg/kg perorally; format: functional; conditions: route oral
Rattus norvegicus [5] = assay: Rat glucose tolerance test was determined in vivo at 10 mg/kg perorally; format: functional; conditions: route oral
Rattus norvegicus [6] = assay: Rat glucose tolerance test was determined in vivo at 75 mg/kg perorally; format: functional; conditions: route oral
[7] = molecular target: T1, Carnitine O-palmitoyltransferase 1, liver isoform; assay: Inhibition of carnitine palmitoyl transferase (CPT), assessed with isolated rat liver mitochondria; Inactive
Rattus norvegicus [8] = species on record: Rattus norvegicus; assay: In vitro inhibition of [1-14C]palmitate oxidation in rat hemidiaphragms; Inactive; format: functional
Rattus norvegicus [9] = assay: Rat glucose tolerance in vivo expressed as minimum effective dose (MED), it is the lowest dose giving a statistically significant (p<0.05) lowering at any time point; Inactive; format: functional, organism-based
Rattus norvegicus [10] = assay: Rat glucose tolerance test was determined in vivo at 100 mg/kg perorally; Inactive; format: functional, organism-based; parameters: dose 100 mg/kg

## CCCCCCCCCCCCCC[C@]1(C(=O)OC)CO1
[1]
  IC50: 40 nM

## CCCCCCCCCCCCCCC1(C(=O)O)CO1 (racemic) [PALMOXIRATE]
Rattus norvegicus [2]
  IC50: 2200 nM
Rattus norvegicus [3]
  minimal effective dose: 5 mg/kg
Rattus norvegicus [4]
  Lowering: 53%
[1]
  IC50: 40 nM

## CCCCCCCCCCCCCC[C@]1(C(=O)O)CO1
Rattus norvegicus [2]
  IC50: 1200 nM
Rattus norvegicus [3]
  minimal effective dose: 5 mg/kg
Rattus norvegicus [5]
  Lowering: 25%
[1]
  IC50: 30 nM

## CCCCCCCCCCCCCCC1(C(=O)SCCNC(=O)CCNC(=O)C(O)C(C)(C)COP(=O)(O)OP(=O)(O)OC[C@H]2O[C@@H](n3cnc4c(N)ncnc43)[C@H](O)[C@@H]2OP(=O)(O)O)CO1 (mixture of isomers)
[1]
  IC50: 30 nM

## CCCCCCCCCCCCCC[C@]1(C(=O)SCCNC(=O)CCNC(=O)C(O)C(C)(C)COP(=O)(O)OP(=O)(O)OC[C@H]2O[C@@H](n3cnc4c(N)ncnc43)[C@H](O)[C@@H]2OP(=O)(O)O)CO1 (some centres undefined)
[1]
  IC50: 20 nM

## CCCCCCCCCCCCCCC1(C(=O)OC)CO1 (racemic) [METHYL PALMOXIRATE]
Rattus norvegicus [3]
  minimal effective dose: 2 mg/kg
Rattus norvegicus [6]
  Lowering: 45%
[1]
  IC50: 90 nM

## CCCCCCCCCCCCCC[C@@]1(C(=O)SCCNC(=O)CCNC(=O)C(O)C(C)(C)COP(=O)(O)OP(=O)(O)OC[C@H]2O[C@@H](n3cnc4c(N)ncnc43)[C@H](O)[C@@H]2OP(=O)(O)O)CO1 (some centres undefined)
[7]
  IC50: Not Active

## CCCCCCCCCCCCCC[C@@]1(C(=O)O)CO1
Rattus norvegicus [8]
  IC50: Not Active
Rattus norvegicus [9]
  MED: inactive
Rattus norvegicus [10]
  Lowering: inactive
[7]
  IC50: Not Active
